Measured values published in patent US8546392B2, “17Beta-hydroxysteroid dehydrogenase type 1 inhibitors for the treatment of hormone-related diseases” (Universitaet des Saarlandes, priority 2008, dated 2013).
Where two headings read alike, the source gives them in different places.

Key:
estrogen receptor α = estrogen receptor α (Homo sapiens (Human), UniProt P03372); test: Estrogen receptor binding assay, ERα
17β-HSD2 = 17β-HSD2 (Homo sapiens (Human), UniProt P37059); test: 17β-HSD2 test assay (recombinant protein from Sf9 insect cells, 3H-estradiol/NAD+); type: biochemical; conditions: for inhibition at 0.1 µM: read-out: HSD2 100 nM (% inhibition); for inhibition at 1 µM: read-out: HSD2 1 μM (% inhibition)
Procedure: Recombinant protein obtained from Sf9 insect cells (0.1 μg/ml) is incubated with 20 mM KH2PO4, pH 7.4, 30 nM ^3H-estradiol and 1 mM NAD+ for 30 min at RT in the presence of the potential inhibitor in a concentration of 1 μM or 100 nM. The stock solutions of the compounds are prepared in DMSO so that the final concentration of DMSO in the sample is 1%. After the prescribed incubation time, the reaction is quenched by adding trichloroacetic acid (10% final concentration). The samples are centrifuged in microtitration plates at 400 rpm for 10 min, and the supernatants are charged on a reversed-phase HPLC equipped with a Waters Symmetrie C18 column and
Waters Sentry Guard column. The isocratic HPLC run is performed at RT with a flow rate of 1 ml/min and acetonitrile/water 48:52 as the eluent. The radioactivity was measured by means of a Packard Flow Scintillation Analyzer. The percent inhibition was calculated by means of the formulas stated above.

estrogen receptor β = estrogen receptor β (Homo sapiens (Human), UniProt Q92731); test: Estrogen receptor binding assay, ERβ
17β-HSD1 = 17β-HSD1 (Homo sapiens (Human), UniProt P14061); test: 17β-HSD1 test assay (recombinant protein from Sf9 insect cells, 3H-estrone/NADPH); type: biochemical; conditions: for inhibition at 1 µM: read-out: HSD 1 μM (% inhibition of HSD1); for inhibition at 0.1 µM: read-out: HSD1 100 nM (% inhibition)
Procedure: Recombinant protein obtained from Sf9 insect cells (0.1 μg/ml) is incubated with 20 mM KH2PO4, pH 7.4, 30 nM ^3H-estrone and 1 mM NADPH for 30 min at RT in the presence of the potential inhibitor in a concentration of 1 μM or 100 nM. The stock solutions of the compounds are prepared in DMSO (dimethylsulfoxide) so that the final concentration of DMSO in the sample is 1%. After the prescribed incubation time, the reaction is quenched by adding trichloroacetic acid (10% final concentration). The samples are centrifuged in microtitration plates at 400 rpm for 10 min, and the supernatants are charged on a reversed-phase HPLC equipped with a Waters Symmetrie C18 column and Waters Sentry Guard column. The isocratic HPLC run is performed at RT with a flow rate of 1 ml/min and acetonitrile/water 48:52 as the eluent. The radioactivity was measured by means of a Packard Flow Scintillation Analyzer. […]

[1] = In vivo pharmacokinetics (rat), single oral administration; conditions: single oral administration 50 mg/kg, male Wistar rats
[2] = In vivo pharmacokinetics (rat), cassette dosing method; conditions: cassette dosing perorally 10 mg/kg, male Wistar rats; for AUC(0-t) / Tmax / AUC(0-inf): rat, plasma, po; for AUC(0-inf): extrapolated to ∞
Source text: Labrasol/water 1/1). The plasma profiles were established by means of LC-MS/MS.

[3] = CaCo-2 assay (transport experiments); type: in vitro ADME; conditions: human, Caco-2; initial donor concentration 50 μM
Procedure: (§1) Four reference compounds (atenolol, testosterone, ketoprofene and erythromycin) were employed in each assay for evaluating the transport properties of the CaCo-2 cells. The initial concentration of the compounds in the donor compartment was 50 μM (in buffer with 1% ethanol or DMSO). […] For glycoprotein P (P-gp) studies, bidirectional experiments were performed. The absorptive and secretory permeabilities (Papp(a-b) and Papp(b-a)) were determined. Thus, erythromycin was used as a substrate, and verapamil was used as an inhibitor of P-gp. Each experiment was performed in triplicate. The integrity of the monolayer was determined by means of TEER (transepithelial electric resistance) and the permeability for each assay was determined using Lucifer Yellow. All samples of the CaCo-2 transport experiments were analyzed by means of LC/MS/MS after dilution with buffer (1:1 with 2% acetic acid).

CaCo-2 cells = test: CaCo-2 assay (transport experiments); type: in vitro ADME; conditions: for Permeability: class in words; for final basolateral concentration [μM ± SD]: initial donor concentration 50 μM
Procedure: as §1

CYP2D6 = CYP2D6 (Homo sapiens (Human), UniProt P10635); test: P450 inhibition assay CYP2D6; type: biochemical; conditions: read-out: IC50 (mean ± SD) [μM] CYP2D6
[4] = Test for metabolic stability, liver microsomes; conditions: for Slope (−k): rat liver microsomes
Procedure: The assay was performed with liver microsomes of rats.
The incubation solution (180 μl) consists of 90 μl of a microsomal suspension of 0.33 mg/ml protein in 100 mM phosphate buffer, pH 7.4, with 90 μl NADP-regenerating system (NADP: 1 mM, glucose-6-phosphate 5 mM, glucose-6-phosphate dehydrogenase: 5 U/ml, MgCl2 5 mM).
The reaction is started by adding 20 μl of the compound to be tested in 20% ACN to the microsome/buffer mixture preincubated at 37° C. After 0, 15, 30 and 60 minutes, 200 μl of sample solution is withdrawn and subjected to ACN precipitation. The isolation of the compounds is effected by adding 200 μl ACN that contains the internal standard (1 μM) to 200 μl of sample solution and calibration standard. After shaking for 10 s and centrifugation at 4000 g, an aliquot of the supernatant is subjected to LC-MS/MS. Two controls are included, namely a positive control with 7-ethoxycoumarin as a reference to verify the microsomal enzyme activity, and a negative control in which microsomes are used that were heated for 25 minutes without a regenerating system, in order to ensure that the loss of substance is actually due to metabolization.
The amount of compound in a sample is expressed as the percent fraction of the compound remaining as compared to time t=0 (100%). The percent fraction is plotted versus time.

CYP3A4 = CYP3A4 (Homo sapiens (Human), UniProt P08684); test: P450 inhibition assay CYP3A4; type: biochemical; conditions: read-out: IC50 (mean ± SD) [μM] CYP3A4
CYP2B6 = CYP2B6 (Homo sapiens (Human), UniProt P20813); test: P450 inhibition assay CYP2B6
CYP1A2 = CYP1A2 (Homo sapiens (Human), UniProt P05177); test: P450 inhibition assay CYP1A2
CYP2C9 = CYP2C9 (Homo sapiens (Human), UniProt P11712); test: P450 inhibition assay CYP2C9
CYP2C19 = CYP2C19 (Homo sapiens (Human), UniProt P33261); test: P450 inhibition assay CYP2C19
[5] = relative binding affinity (estradiol: 100%)

Sequence of 17β-HSD1 (P14061 whole entry): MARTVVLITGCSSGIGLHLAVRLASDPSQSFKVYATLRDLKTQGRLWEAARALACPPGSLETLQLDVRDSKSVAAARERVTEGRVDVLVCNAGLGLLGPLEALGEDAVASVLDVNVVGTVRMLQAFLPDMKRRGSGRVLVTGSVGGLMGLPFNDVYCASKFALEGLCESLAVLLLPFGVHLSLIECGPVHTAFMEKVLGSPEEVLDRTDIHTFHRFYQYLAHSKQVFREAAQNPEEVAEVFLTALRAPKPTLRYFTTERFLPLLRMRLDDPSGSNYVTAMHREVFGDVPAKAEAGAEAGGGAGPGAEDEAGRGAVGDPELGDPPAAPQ
Sequence of 17β-HSD2 (P37059 whole entry): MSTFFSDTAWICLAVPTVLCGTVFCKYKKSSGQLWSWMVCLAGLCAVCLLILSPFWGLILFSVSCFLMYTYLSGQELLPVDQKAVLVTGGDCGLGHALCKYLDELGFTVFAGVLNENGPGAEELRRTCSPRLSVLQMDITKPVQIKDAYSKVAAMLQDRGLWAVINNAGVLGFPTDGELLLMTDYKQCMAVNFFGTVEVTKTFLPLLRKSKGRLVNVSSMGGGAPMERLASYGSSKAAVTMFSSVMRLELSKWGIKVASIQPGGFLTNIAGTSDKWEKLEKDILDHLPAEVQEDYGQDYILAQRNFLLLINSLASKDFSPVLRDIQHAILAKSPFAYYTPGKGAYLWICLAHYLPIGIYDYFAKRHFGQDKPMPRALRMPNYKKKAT
Sequence of estrogen receptor α (P03372 whole entry): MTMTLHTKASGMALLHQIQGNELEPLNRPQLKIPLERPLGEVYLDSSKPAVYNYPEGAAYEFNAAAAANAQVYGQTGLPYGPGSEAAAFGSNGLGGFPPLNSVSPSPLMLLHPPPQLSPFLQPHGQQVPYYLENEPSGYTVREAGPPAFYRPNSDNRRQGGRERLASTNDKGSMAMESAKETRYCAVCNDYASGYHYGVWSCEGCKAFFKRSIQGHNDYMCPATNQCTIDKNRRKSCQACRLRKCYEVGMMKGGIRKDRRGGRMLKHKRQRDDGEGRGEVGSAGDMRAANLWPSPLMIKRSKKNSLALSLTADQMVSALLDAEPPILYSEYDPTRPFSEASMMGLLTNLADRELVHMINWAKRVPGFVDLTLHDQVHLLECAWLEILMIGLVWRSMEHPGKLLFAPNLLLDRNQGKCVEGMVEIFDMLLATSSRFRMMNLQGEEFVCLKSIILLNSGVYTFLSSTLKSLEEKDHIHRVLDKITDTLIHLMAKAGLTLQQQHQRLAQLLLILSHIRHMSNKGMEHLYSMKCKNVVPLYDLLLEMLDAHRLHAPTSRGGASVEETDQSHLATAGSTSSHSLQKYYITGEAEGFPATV
Sequence of estrogen receptor β (Q92731 whole entry): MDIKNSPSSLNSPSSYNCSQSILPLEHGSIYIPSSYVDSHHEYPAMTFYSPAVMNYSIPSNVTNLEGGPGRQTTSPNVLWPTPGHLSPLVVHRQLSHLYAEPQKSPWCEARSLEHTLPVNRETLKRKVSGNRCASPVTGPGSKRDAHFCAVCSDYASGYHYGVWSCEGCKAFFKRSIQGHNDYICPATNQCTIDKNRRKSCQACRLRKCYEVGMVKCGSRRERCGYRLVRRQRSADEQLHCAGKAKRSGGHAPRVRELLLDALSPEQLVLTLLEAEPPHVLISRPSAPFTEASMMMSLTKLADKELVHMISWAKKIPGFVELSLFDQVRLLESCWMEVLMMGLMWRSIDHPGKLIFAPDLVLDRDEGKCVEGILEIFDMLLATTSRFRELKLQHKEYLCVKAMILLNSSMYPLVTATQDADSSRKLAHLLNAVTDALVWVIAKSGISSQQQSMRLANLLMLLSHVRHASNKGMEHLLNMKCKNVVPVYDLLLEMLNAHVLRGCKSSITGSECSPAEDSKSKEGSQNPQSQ
Sequence of CYP2D6 (P10635 whole entry): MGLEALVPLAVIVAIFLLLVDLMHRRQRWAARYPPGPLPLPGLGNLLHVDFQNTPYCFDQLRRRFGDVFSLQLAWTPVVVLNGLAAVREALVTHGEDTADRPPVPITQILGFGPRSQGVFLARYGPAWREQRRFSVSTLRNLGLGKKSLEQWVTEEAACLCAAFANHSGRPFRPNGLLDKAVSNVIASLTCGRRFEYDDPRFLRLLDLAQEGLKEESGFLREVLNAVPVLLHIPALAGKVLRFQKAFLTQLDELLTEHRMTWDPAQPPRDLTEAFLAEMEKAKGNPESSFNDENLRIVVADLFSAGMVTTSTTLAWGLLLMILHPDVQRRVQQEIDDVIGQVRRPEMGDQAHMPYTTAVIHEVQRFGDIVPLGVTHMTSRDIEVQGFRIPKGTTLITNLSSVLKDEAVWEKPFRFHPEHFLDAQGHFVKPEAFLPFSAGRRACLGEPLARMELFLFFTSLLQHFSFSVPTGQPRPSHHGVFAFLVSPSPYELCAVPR
Sequence of CYP3A4 (P08684 whole entry): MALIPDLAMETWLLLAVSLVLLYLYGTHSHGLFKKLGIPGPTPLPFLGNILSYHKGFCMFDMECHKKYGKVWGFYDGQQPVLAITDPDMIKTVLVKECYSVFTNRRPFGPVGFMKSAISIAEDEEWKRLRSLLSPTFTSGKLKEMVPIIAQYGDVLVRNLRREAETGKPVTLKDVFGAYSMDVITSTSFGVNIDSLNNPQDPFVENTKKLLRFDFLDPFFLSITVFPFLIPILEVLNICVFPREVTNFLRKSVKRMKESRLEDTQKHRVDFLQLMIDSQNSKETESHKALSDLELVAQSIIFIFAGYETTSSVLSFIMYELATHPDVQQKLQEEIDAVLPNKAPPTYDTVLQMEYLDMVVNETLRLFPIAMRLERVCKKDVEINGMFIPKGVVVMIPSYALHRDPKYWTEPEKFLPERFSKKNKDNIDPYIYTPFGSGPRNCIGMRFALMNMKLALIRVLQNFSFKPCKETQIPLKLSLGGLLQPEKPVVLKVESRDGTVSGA
Sequence of CYP2C19 (P33261 whole entry): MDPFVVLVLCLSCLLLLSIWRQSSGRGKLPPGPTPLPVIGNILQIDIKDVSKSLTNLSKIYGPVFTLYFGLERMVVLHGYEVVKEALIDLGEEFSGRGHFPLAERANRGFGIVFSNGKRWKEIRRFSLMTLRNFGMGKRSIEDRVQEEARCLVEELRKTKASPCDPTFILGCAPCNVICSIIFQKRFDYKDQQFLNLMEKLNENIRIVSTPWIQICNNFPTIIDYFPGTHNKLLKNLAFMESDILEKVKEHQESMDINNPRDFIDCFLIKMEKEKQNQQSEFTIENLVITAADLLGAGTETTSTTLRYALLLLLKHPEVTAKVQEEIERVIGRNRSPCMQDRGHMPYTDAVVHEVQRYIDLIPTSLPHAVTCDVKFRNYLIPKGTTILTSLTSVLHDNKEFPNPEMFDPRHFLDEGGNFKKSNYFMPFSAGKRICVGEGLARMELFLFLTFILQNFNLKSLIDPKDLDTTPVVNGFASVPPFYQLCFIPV
Sequence of CYP2B6 (P20813 whole entry): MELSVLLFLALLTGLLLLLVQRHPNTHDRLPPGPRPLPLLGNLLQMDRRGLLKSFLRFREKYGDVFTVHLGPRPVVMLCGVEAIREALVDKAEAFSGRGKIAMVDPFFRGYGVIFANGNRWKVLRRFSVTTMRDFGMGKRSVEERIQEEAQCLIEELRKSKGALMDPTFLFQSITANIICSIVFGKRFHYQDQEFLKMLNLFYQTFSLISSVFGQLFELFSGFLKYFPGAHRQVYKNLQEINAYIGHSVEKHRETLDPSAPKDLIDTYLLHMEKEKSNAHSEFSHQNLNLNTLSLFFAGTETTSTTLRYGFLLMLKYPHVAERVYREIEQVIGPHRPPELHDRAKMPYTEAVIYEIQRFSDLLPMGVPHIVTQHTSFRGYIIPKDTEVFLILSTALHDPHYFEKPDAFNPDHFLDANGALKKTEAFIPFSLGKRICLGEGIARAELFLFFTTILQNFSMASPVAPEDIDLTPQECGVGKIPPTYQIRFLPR
Sequence of CYP1A2 (P05177 whole entry): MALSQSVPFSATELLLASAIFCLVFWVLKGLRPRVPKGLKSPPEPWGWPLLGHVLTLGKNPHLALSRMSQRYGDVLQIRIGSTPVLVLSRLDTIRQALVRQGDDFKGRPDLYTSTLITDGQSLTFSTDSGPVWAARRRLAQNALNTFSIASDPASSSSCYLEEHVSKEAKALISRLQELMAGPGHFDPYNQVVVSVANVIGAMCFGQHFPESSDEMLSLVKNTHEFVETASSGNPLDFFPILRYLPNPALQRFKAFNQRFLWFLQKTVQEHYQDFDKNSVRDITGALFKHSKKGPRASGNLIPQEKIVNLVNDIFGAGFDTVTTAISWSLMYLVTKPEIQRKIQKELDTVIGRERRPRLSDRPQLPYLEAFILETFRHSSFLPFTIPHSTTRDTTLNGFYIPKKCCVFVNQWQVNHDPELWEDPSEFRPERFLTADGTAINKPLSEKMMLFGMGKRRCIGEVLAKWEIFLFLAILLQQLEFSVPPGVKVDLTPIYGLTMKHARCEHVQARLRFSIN
Sequence of CYP2C9 (P11712 whole entry): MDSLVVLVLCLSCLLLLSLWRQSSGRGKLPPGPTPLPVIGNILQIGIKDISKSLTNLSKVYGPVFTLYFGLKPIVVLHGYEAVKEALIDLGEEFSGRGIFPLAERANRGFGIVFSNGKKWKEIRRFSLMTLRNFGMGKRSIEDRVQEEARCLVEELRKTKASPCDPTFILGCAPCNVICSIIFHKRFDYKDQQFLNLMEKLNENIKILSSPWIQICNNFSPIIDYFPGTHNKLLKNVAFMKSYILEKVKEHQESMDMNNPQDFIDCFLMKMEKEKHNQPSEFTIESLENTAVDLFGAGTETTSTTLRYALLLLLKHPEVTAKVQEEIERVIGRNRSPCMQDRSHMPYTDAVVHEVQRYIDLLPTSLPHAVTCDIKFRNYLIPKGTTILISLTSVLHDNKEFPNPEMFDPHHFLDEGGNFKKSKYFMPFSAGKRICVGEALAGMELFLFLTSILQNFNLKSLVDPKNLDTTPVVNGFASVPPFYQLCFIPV

SMILES	inhibition at 0.1 µM (17β-HSD2; inhibitor 100 nM) [%]	inhibition at 1 µM (17β-HSD2; inhibitor 1 μM) [%]	inhibition at 1 µM (17β-HSD1; inhibitor 1 μM) [%]	inhibition at 0.1 µM (17β-HSD1; inhibitor 100 nM) [%]	RBA ERα [%] (estrogen receptor α; [5])	RBA ERβ [%] (estrogen receptor β; [5])	T1/2z [2] [h]	tz [2] [h]	AUC(0-t) [2] [µg·h/mL]	Tmax [2] [h]	AUC(0-inf) [2] [µg·h/mL]	further results
Oc1cccc(-c2ccc3c(-c4ccncc4)c(O)ccc3c2)c1 [Compound 60, 6-(3-Hydroxyphenyl)-1-(pyridin-4-yl)naphthalene-2-ol]	12.2	48.5	–	–	0.0068	0.003	–	–	–	–	–	inhibition at 1 µM (17β-HSD1): 85.9%; inhibition at 0.1 µM (17β-HSD1): 74.4%
Oc1cccc(-c2ccc3c(-c4cccc(O)c4)c(O)ccc3c2)c1 [Compound 57, 1,6-Bis(3-hydroxyphenyl)naphthalene-2-ol]	–	–	92.6	82.9	0.0013	0.020	0.9	10.0	10.7	6	10.7	inhibition at 0.1 µM (17β-HSD2): < 10%; inhibition at 1 µM (17β-HSD2): 40.1%
O=C(Nc1ccccc1)c1c(O)ccc2cc(-c3cccc(O)c3)ccc12 [Compound 42, 2-Hydroxy-6-(3-hydroxyphenyl)-N-phenyl-1-naphthamide]	< 10	16.3	80.2	40	–	–	–	–	–	–	–	Papp at 180 min, 50 μM [3]: 15 nm/s; mass balance [% ± SD] (CaCo-2 cells): 7.6 ± 0.5%; Permeability (CaCo-2 cells): moderate; final basolateral concentration [μM ± SD] (CaCo-2 cells): 1.1 ± 0.1 µM
CS(=O)(=O)Nc1cccc(-c2c(O)ccc3cc(-c4cccc(O)c4)ccc23)c1 [Compound 64, N-(3-(2-Hydroxy-6-(3-hydroxyphenyl)naphthalene-1-yl)phenyl)methanesulfonamide]	31.1	71.3	–	–	–	–	1.1	10.0	1.33	2	1.33	RBA ERα [%] (estrogen receptor α): 0.012%; RBA ERβ [%] (estrogen receptor β): 0.007%; inhibition at 1 µM (17β-HSD1): 90.8%; inhibition at 0.1 µM (17β-HSD1): 88.1%
Oc1cccc(-c2ccc3cc(O)ccc3c2)c1 [Compound 19, 6-(3-Hydroxyphenyl)-2-naphthol]	12.4	16.6	94	91.4	0.23	0.80	4.4	24.0	29.7	6	30.7	Papp at 180 min, 50 μM [3]: 89 nm/s; mass balance [% ± SD] (CaCo-2 cells): 37.5 ± 3.0%; Permeability (CaCo-2 cells): moderate; final basolateral concentration [μM ± SD] (CaCo-2 cells): 6.5 ± 0.2 µM; IC50 (CYP2D6): 32.6 ± 0.72 µM; Slope (−k) [4]: −0.055; half-life ([4]; rat, microsomes, pH 7.4): 0.21 h; microsomal CLint ([4]; rat, microsomes, pH 7.4): 367 µL/min/mg
Oc1cccc(-c2ccc3c(-c4ccoc4)c(O)ccc3c2)c1 [Compound 58, 1-(Furan-3-yl)-6-(3-hydroxyphenyl)naphthalene-2-ol]	60.6	92.3	–	–	–	–	–	–	–	–	–	RBA ERα [%] (estrogen receptor α): 0.022%; RBA ERβ [%] (estrogen receptor β): 0.024%; inhibition at 1 µM (17β-HSD1): 89.1%; inhibition at 0.1 µM (17β-HSD1): 83%
COc1ccc(-c2c(O)ccc3cc(-c4cccc(O)c4)ccc23)cn1 [Compound 62, 6-(3-Hydroxyphenyl)-1-(6-methoxypyridin-3-yl)naphthalene-2-ol]	–	–	89.2	85.9	–	–	–	–	–	–	–	IC50 (CYP3A4): 1.07 ± 0.05 µM; inhibition at 0.1 µM (17β-HSD2): 24.3%; inhibition at 1 µM (17β-HSD2): 67.2%; IC50 (CYP2B6): 10.4 ± 0.14 µM; IC50 (CYP2D6): 40 ± 0.08 µM; Slope (−k) [4]: −0.014; microsomal CLint ([4]; rat, liver microsomes, pH 7.4): 92.8 µL/min/mg
CNC(=O)/C=C/c1c(O)ccc2cc(-c3cccc(O)c3)ccc12 [Compound 39, (E)-3-(2-Hydroxy-6-(3-hydroxyphenyl)naphthalene-1-yl)-N-methylacrylamide]	33.9	73.2	57.6	19.2	–	–	–	–	–	–	–	–

More lines, main results first:

inhibition at 0.1 µM (17β-HSD2; inhibitor 100 nM) [%]	inhibition at 1 µM (17β-HSD2; inhibitor 1 μM) [%]	inhibition at 1 µM (17β-HSD1; inhibitor 1 μM) [%]	inhibition at 0.1 µM (17β-HSD1; inhibitor 100 nM) [%]	SMILES	RBA ERα [%] (estrogen receptor α; [5])	RBA ERβ [%] (estrogen receptor β; [5])	T1/2z [2] [h]	tz [2] [h]	AUC(0-t) [2] [µg·h/mL]	Tmax [2] [h]	AUC(0-inf) [2] [µg·h/mL]	further results
24	71	96.3	87	O=S(=O)(Nc1nccs1)c1cccc(-c2c(O)ccc3cc(-c4cccc(O)c4)ccc23)c1 [Compound 69, 3-(2-Hydroxy-6-(3-hydroxyphenyl)naphthalene-1-yl)-N-(thiazol-2-yl)-benzenesulfonamide]	0.015	0.010	–	–	–	–	–	–
< 10	39.1	87.3	74.1	Nc1cccc(-c2c(O)ccc3cc(-c4cccc(O)c4)ccc23)c1 [Compound 68, 1-(3-Aminophenyl)-6-(3-hydroxyphenyl)naphthalene-2-ol]	–	–	2.4	24.0	0.539	2	0.54	AUC(0-t) ([1]; rat, plasma): 0.337 µg·h/mL; Tmax ([1]; rat, plasma): 2 h; AUC(0-inf) ([1]; rat, plasma, extrapolated to ∞): 0.337 µg·h/mL; t1/2z [1]: 1.59 h; tz [1]: 8.0 h; Papp at 180 min, 50 μM [3]: 164 nm/s; mass balance [% ± SD] (CaCo-2 cells): 52.7 ± 3.6%; Permeability (CaCo-2 cells): high; final basolateral concentration [μM ± SD] (CaCo-2 cells): 13.9 ± 0.8 µM
19	69	88.4	82.9	Oc1cccc(-c2ccc3c(Br)c(O)ccc3c2)c1 [Compound 52, 1-Bromo-6-(3-hydroxyphenyl)naphthalene-2-ol]	0.081	0.10	–	–	–	–	–	–
22.1	77.2	89.4	76.2	Oc1cccc(-c2ccc3c(-c4ccccc4)c(O)ccc3c2)c1 [Compound 56, 6-(3-Hydroxyphenyl)-1-phenyl-2-naphthol]	0.055	0.044	5.9	24.0	11.7	4	12.7	–
–	–	94	83	N#Cc1cc(O)cc2ccc(-c3cccc(O)c3)cc12 [Compound 54, 3-Hydroxy-7-(3-hydroxyphenyl)-1-naphthonitrile]	–	–	–	–	–	–	–	IC50 (CYP3A4): 2.05 ± 0.18 µM; IC50 (CYP1A2): 0.259 ± 0.01 µM; Papp at 180 min, 50 μM [3]: 44 nm/s; mass balance [% ± SD] (CaCo-2 cells): 30.5 ± 3.1%; Permeability (CaCo-2 cells): moderate; final basolateral concentration [μM ± SD] (CaCo-2 cells): 3.7 ± 0.3 µM; IC50 (CYP2C9): 0.224 ± 0.002 µM; IC50 (CYP2C19): 1.21 ± 0.19 µM
18	67	74.4	32.3	N#Cc1cc(-c2cccc(O)c2)cc2ccc(O)cc12 [Compound 53, 7-Hydroxy-3-(3-hydroxyphenyl)-1-naphthonitrile]	–	–	–	–	–	–	–	–
